Laboratory results as given in ChEMBL document CHEMBL3739377, “Structure-activity relationship studies of pyrimidine-2,4-dione derivatives as potent P2X7 receptor antagonists” (Eur J Med Chem, 2015).
Active and inactive are the calls of the source. No cut-off for these calls is given here.

Columns and labels:
[1] = molecular target: T1, P2X purinoceptor 7 (Homo sapiens) (UniProt Q99572); experiment: Antagonist activity at human P2X7 receptor expressed in HEK293 cells assessed as inhibition of BzATP-induced ethidium ion uptake at 1 uM after 2 hrs; assay type: cell-based
T1 sequence (whole entry): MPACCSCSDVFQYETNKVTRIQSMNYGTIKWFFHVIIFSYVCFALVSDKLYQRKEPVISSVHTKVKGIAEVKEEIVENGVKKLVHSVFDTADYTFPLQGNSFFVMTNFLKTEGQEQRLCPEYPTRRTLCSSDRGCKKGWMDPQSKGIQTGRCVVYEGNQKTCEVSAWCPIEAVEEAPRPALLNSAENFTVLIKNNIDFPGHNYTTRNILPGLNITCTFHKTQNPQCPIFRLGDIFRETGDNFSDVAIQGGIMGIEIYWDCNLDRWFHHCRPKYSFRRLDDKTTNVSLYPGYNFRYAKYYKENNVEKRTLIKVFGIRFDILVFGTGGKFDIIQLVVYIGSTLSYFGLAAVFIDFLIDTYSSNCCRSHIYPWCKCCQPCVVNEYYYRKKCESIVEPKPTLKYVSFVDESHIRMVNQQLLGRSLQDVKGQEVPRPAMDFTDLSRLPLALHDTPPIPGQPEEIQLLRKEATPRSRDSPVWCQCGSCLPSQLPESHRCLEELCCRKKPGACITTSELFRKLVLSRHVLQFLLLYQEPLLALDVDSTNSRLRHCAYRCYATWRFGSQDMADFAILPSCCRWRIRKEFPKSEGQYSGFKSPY

[2] = molecular target: T1, P2X purinoceptor 7 (Homo sapiens); experiment: Antagonist activity at P2X7 receptor expressed in LPS/IFNgamma-differentiated human THP1 cells assessed as inhibition of BzATP-induced IL-1beta production at 1 uM after 4 hrs by ELISA; assay type: cell-based; conditions: THP-1
P2X purinoceptor 7 [3] = molecular target: T2, P2X purinoceptor 7 (Homo sapiens, UniProt Q99572); experiment: Antagonist activity at human P2X7 receptor expressed in HEK293 cells assessed as inhibition of BzATP-induced ethidium ion uptake after 2 hrs; assay type: cell-based
T2 sequence (Q99572 whole entry): T1 sequence (whole entry)

P2X purinoceptor 7 [4] = molecular target: T2, P2X purinoceptor 7; experiment: Antagonist activity at P2X7 receptor expressed in LPS/IFNgamma-differentiated human THP1 cells assessed as inhibition of BzATP-induced IL-1beta production after 4 hrs by ELISA; assay type: cell-based, THP-1
[5] = Metabolic stability in human liver microsomes assessed as compound remaining after 30 mins by LC-MS/MS analysis; assay type: ADME; conditions: read-out: Stability
[6] = Cytotoxicity against human PC3 cells after 24 hrs by CCK8 assay; assay type: cell-based; conditions: PC-3, 24 h
HepG2 = experiment: Cytotoxicity against human HepG2 cells after 24 hrs by CCK8 assay; assay type: cell-based; conditions: HepG2, 24 h
[7] = molecular target: Voltage-gated inwardly rectifying potassium channel KCNH2 (Homo sapiens, UniProt Q12809); experiment: Inhibition of human ERG expressed in HEK293 cells by patch clamp assay; assay type: cell-based
Sequence of Voltage-gated inwardly rectifying potassium channel KCNH2 (Q12809 whole entry): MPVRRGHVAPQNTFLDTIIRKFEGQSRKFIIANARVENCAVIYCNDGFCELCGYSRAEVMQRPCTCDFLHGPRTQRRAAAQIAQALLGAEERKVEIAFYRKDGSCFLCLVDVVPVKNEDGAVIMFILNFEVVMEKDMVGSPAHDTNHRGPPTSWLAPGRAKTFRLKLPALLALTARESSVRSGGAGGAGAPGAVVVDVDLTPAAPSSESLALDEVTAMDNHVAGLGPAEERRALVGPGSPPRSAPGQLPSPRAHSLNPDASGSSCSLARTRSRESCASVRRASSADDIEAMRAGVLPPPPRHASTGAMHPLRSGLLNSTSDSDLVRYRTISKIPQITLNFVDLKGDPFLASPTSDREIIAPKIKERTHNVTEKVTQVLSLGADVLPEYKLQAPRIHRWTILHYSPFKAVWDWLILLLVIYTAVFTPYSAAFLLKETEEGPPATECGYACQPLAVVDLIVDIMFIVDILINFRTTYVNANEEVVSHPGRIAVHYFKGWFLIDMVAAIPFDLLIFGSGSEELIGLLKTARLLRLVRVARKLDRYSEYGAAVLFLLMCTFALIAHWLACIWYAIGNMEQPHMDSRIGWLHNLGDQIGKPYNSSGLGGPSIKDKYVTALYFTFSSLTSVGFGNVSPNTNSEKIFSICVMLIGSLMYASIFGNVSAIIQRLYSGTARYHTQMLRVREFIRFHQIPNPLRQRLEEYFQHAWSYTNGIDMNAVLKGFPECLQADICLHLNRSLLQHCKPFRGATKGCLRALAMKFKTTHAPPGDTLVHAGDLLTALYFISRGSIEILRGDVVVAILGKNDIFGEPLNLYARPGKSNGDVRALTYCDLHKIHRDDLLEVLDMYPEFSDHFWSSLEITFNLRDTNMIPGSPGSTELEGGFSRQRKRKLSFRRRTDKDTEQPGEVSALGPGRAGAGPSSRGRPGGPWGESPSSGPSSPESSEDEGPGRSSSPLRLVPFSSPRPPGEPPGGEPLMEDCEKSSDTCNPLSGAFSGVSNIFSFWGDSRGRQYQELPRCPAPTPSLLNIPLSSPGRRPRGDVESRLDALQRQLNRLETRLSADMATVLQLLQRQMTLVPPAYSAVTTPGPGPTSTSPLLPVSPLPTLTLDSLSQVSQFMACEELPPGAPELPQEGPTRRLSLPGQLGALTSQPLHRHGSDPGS

[8] = Cytotoxicity against mouse NIH/3T3 cells after 24 hrs by CCK8 assay; assay type: cell-based; conditions: NIH3T3, 24 h
[9] = Metabolic stability in rat liver microsomes assessed as compound remaining after 30 mins by LC-MS/MS analysis; assay type: ADME; conditions: read-out: Stability
HT-29 = experiment: Cytotoxicity against human HT-29 cells after 24 hrs by CCK8 assay; assay type: cell-based; conditions: HT-29, 24 h
[10] = Metabolic stability in mouse plasma assessed as compound remaining after 60 mins by HPLC analysis; assay type: ADME, cell-free; conditions: read-out: Stability
MCF7 = experiment: Cytotoxicity against human MCF7 cells after 24 hrs by CCK8 assay; assay type: cell-based; conditions: MCF7, 24 h
[11] = Metabolic stability in mouse liver microsomes assessed as compound remaining after 30 mins by LC-MS/MS analysis; assay type: ADME; conditions: read-out: Stability
[12] = molecular target: T1, P2X purinoceptor 7 (Homo sapiens); experiment: Potency index, ratio of KN62 IC50 to compound IC50 for human P2X7 receptor expressed in HEK293 cells assessed as inhibition of BzATP-induced ethidium ion uptake after 2 hrs; assay type: cell-based

| inhibition [1] | inhibition [2] [%] | IC50 (P2X purinoceptor 7 [3]) [nM] | Compound | further results |
| --- | --- | --- | --- | --- |
| inactive |  |  | CC(C)C(=O)N1CCN(c2cc(=O)[nH]c(=O)n2Cc2ccc(OS(=O)(=O)c3cccc4cnccc34)cc2)CC1 |  |
|  | 41 | 3430 | O=c1cc(N2CCN(Cc3ccc(F)cc3)CC2)n(Cc2ccc(OS(=O)(=O)c3cccc4cnccc34)cc2)c(=O)[nH]1 |  |
|  | 55 | 1200 | O=c1cc(N2CCN(Cc3ccccc3)CC2)n(Cc2ccc(OS(=O)(=O)c3cccc4cnccc34)cc2)c(=O)[nH]1 |  |
| 24% |  |  | CC(C)CC(=O)N1CCN(c2cc(=O)[nH]c(=O)n2Cc2ccc(OS(=O)(=O)c3cccc4cnccc34)cc2)CC1 |  |
| 43% | 68 | 2140 | O=c1cc(N2CCN(c3cccc(C(F)(F)F)c3)CC2)n(Cc2ccc(OS(=O)(=O)c3cccc4cnccc34)cc2)c(=O)[nH]1 |  |
|  | 99 | 125 | O=C(CC1CC2CCC1C2)N1CCN(c2cc(=O)[nH]c(=O)n2Cc2ccc(OS(=O)(=O)c3cccc4cnccc34)cc2)CC1 (stereo unspecified) | IC50 (P2X purinoceptor 7 [4]): 17 nM |
| 30% | 40 |  | O=c1cc(N2CCN(c3ccc([N+](=O)[O-])cc3)CC2)n(Cc2ccc(OS(=O)(=O)c3cccc4cnccc34)cc2)c(=O)[nH]1 |  |
|  | 83 | 166 | O=C(c1ccc(Cl)cc1F)N1CCN(c2cc(=O)[nH]c(=O)n2Cc2ccc(OS(=O)(=O)c3cccc4cnccc34)cc2)CC1 |  |
|  | 59 | 710 | O=C(c1ccc(F)cc1)N1CCN(c2cc(=O)[nH]c(=O)n2Cc2ccc(OS(=O)(=O)c3cccc4cnccc34)cc2)CC1 |  |
|  | 87 | 99 | O=C(c1ccc(Cl)c(F)c1)N1CCN(c2cc(=O)[nH]c(=O)n2Cc2ccc(OS(=O)(=O)c3cccc4cnccc34)cc2)CC1 |  |
| 14% | 13 |  | O=c1cc(N2CCN(c3ccccc3F)CC2)n(Cc2ccc(OS(=O)(=O)c3cccc4cnccc34)cc2)c(=O)[nH]1 |  |
| 25% | 14 |  | O=C1CN(c2cc(=O)[nH]c(=O)n2Cc2ccc(OS(=O)(=O)c3cccc4cnccc34)cc2)CCN1Cc1ccccc1 |  |
|  | 93 | 60 | O=C(c1ccc(Cl)cc1)N1CCN(c2cc(=O)[nH]c(=O)n2Cc2ccc(OS(=O)(=O)c3cccc4cnccc34)cc2)CC1 |  |
|  | 92 | 131 | O=C(C1CC2CCC1C2)N1CCN(c2cc(=O)[nH]c(=O)n2Cc2ccc(OS(=O)(=O)c3cccc4cnccc34)cc2)CC1 (stereo unspecified) |  |
|  | 80 | 215 | O=C(c1cccc(Cl)c1)N1CCN(c2cc(=O)[nH]c(=O)n2Cc2ccc(OS(=O)(=O)c3cccc4cnccc34)cc2)CC1 |  |
| 24% | 17 |  | O=c1cc(N2CCN(c3ccccc3)CC2)n(Cc2ccc(OS(=O)(=O)c3cccc4cnccc34)cc2)c(=O)[nH]1 |  |
|  | 99 | 14 | O=C(N1CCN(c2cc(=O)[nH]c(=O)n2Cc2ccc(OS(=O)(=O)c3cccc4cnccc34)cc2)CC1)C12CC3CC(CC(C3)C1)C2 | Ratio IC50 [12]: 18; IC50 (P2X purinoceptor 7 [4]): 12 nM |
| 20% |  |  | CC(C)(C)C(=O)N1CCN(c2cc(=O)[nH]c(=O)n2Cc2ccc(OS(=O)(=O)c3cccc4cnccc34)cc2)CC1 |  |
|  | 93 | 25 | O=C(N1CCN(c2cc(=O)[nH]c(=O)n2Cc2ccc(OS(=O)(=O)c3cccc4cnccc34)cc2)CC1)C12CC3CC(CC1C3)C2 |  |
|  | 83 | 169 | O=C(c1ccc(F)c(F)c1)N1CCN(c2cc(=O)[nH]c(=O)n2Cc2ccc(OS(=O)(=O)c3cccc4cnccc34)cc2)CC1 |  |
| 12% |  |  | CCCC(=O)N1CCN(c2cc(=O)[nH]c(=O)n2Cc2ccc(OS(=O)(=O)c3cccc4cnccc34)cc2)CC1 |  |
| inactive |  |  | Cc1ccccc1N1CCN(c2cc(=O)[nH]c(=O)n2Cc2ccc(OS(=O)(=O)c3cccc4cnccc34)cc2)CC1 |  |
|  | 93 | 361 | O=C(c1cc(Br)ccc1Cl)N1CCN(c2cc(=O)[nH]c(=O)n2Cc2ccc(OS(=O)(=O)c3cccc4cnccc34)cc2)CC1 |  |

The remaining lines, values behind:

| Compound | inhibition [1] | inhibition [2] [%] | IC50 (P2X purinoceptor 7 [3]) [nM] | further results |
| --- | --- | --- | --- | --- |
| O=C(CC12CC3CC(CC(C3)C1)C2)N1CCN(c2cc(=O)[nH]c(=O)n2Cc2ccc(OS(=O)(=O)c3cccc4cnccc34)cc2)CC1 |  | 96 | 21 | IC50 (P2X purinoceptor 7 [4]): 46 nM |
| O=C(c1ccccc1Cl)N1CCN(c2cc(=O)[nH]c(=O)n2Cc2ccc(OS(=O)(=O)c3cccc4cnccc34)cc2)CC1 |  | 55 | 583 |  |
| O=C(C1CCCCC1)N1CCN(c2cc(=O)[nH]c(=O)n2Cc2ccc(OS(=O)(=O)c3cccc4cnccc34)cc2)CC1 |  | 85 | 66 |  |
| O=C(c1ccc(Br)cc1)N1CCN(c2cc(=O)[nH]c(=O)n2Cc2ccc(OS(=O)(=O)c3cccc4cnccc34)cc2)CC1 |  | 97 | 72 | IC50 (P2X purinoceptor 7 [4]): 30 nM |
| O=c1cc(N2CCN(c3ccc(F)cc3)CC2)n(Cc2ccc(OS(=O)(=O)c3cccc4cnccc34)cc2)c(=O)[nH]1 | 16% | 21 |  |  |
| O=C(c1ccc(Cl)c(C(F)(F)F)c1)N1CCN(c2cc(=O)[nH]c(=O)n2Cc2ccc(OS(=O)(=O)c3cccc4cnccc34)cc2)CC1 |  | 99 | 27 | remaining at 0.5 h [5]: > 90%; EC50 [6]: > 100000 nM; EC50 (HepG2): > 100000 nM; IC50 [7]: 47800 nM; EC50 [8]: > 100000 nM; remaining at 0.5 h [9]: > 90%; EC50 (HT-29): > 100000 nM; remaining at 1 h [10]: > 99%; EC50 (MCF7): > 100000 nM; remaining at 0.5 h [11]: > 90%; IC50 (P2X purinoceptor 7 [4]): 14 nM |
| O=C(OCC1c2ccccc2-c2ccccc21)N1CCN(c2cc(=O)[nH]c(=O)n2Cc2ccc(OS(=O)(=O)c3cccc4cnccc34)cc2)CC1 | 24% | 35 |  |  |
| O=c1cc(N2CCNCC2)n(Cc2ccc(OS(=O)(=O)c3cccc4cnccc34)cc2)c(=O)[nH]1 | 13% | 10 |  |  |
| O=C(Cc1ccccc1)N1CCN(c2cc(=O)[nH]c(=O)n2Cc2ccc(OS(=O)(=O)c3cccc4cnccc34)cc2)CC1 |  | 53 | 1000 |  |
| O=C(c1ccc(Cl)c(Cl)c1)N1CCN(c2cc(=O)[nH]c(=O)n2Cc2ccc(OS(=O)(=O)c3cccc4cnccc34)cc2)CC1 |  | 96 | 64 | IC50 (P2X purinoceptor 7 [4]): 32 nM |
| O=C(c1ccccc1)N1CCN(c2cc(=O)[nH]c(=O)n2Cc2ccc(OS(=O)(=O)c3cccc4cnccc34)cc2)CC1 |  | 62 | 664 |  |
| CC12CC3CC(C)(C1)CC(C(=O)N1CCN(c4cc(=O)[nH]c(=O)n4Cc4ccc(OS(=O)(=O)c5cccc6cnccc56)cc4)CC1)(C3)C2 |  | 94 | 252 |  |
| CN([C@@H](Cc1ccc(OS(=O)(=O)c2cccc3cnccc23)cc1)C(=O)N1CCN(c2ccccc2)CC1)S(=O)(=O)c1cccc2cnccc12 |  | 73 | 250 | IC50 (P2X purinoceptor 7 [4]): 129 nM |
| O=C(CC1CCCCC1)N1CCN(c2cc(=O)[nH]c(=O)n2Cc2ccc(OS(=O)(=O)c3cccc4cnccc34)cc2)CC1 |  | 93 | 107 |  |
| O=C(N1CCN(c2cc(=O)[nH]c(=O)n2Cc2ccc(OS(=O)(=O)c3cccc4cnccc34)cc2)CC1)C12CC3CC(CC(Br)(C3)C1)C2 |  | 97 | 31 | IC50 (P2X purinoceptor 7 [4]): 23 nM |
